In patent US12129246B1, “Hydroquinazoline derivatives for the treatment of a disease or disorder” (Novartis AG, priority 2023, dated 2024):
Where two headings read alike, the source gives them in different places.

How the values were obtained:
monkey NPR1 = monkey NPR1 (Macaca fascicularis, UniProt A0A7N9DBT9); test: Cellular cGMP production assay, monkey NPR1 expressing CHO-K1 cells (CisBio HTRF); type: cell-based; conditions: for Monkey NPR1 Amax (% of ANP): maximum cGMP production as percentage of the maximum cGMP produced with ANP
Summary of the method: (§1)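 CHO-K1 cells expressing human or cynomolgus NPR1 treated with compound (12-point, 3-fold dilutions from 30 μM top) in PBS+0.1% BSA with 1 mM IBMX, 30 min at 37° C. After lysis, cGMP quantified by HTRF competition (cGMP-d2/anti-cGMP-cryptate, 1 h RT, 665 nm emission) against a calibrator standard curve.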

human NPR1 = biological target: T1, human NPR1 (Homo sapiens, UniProt P16066); test: Cellular cGMP production assay, human NPR1 expressing CHO-K1 cells (CisBio HTRF); type: cell-based; conditions: for AC50: cGMP production, 30 min at 37° C., 12-point dose-response from 30 μM; for Human NPR1 Amax (% of ANP): maximum cGMP production as percentage of the maximum cGMP produced with ANP
T1 construct: host or cells: CHO-K1
T1 sequence (P16066 33-1061): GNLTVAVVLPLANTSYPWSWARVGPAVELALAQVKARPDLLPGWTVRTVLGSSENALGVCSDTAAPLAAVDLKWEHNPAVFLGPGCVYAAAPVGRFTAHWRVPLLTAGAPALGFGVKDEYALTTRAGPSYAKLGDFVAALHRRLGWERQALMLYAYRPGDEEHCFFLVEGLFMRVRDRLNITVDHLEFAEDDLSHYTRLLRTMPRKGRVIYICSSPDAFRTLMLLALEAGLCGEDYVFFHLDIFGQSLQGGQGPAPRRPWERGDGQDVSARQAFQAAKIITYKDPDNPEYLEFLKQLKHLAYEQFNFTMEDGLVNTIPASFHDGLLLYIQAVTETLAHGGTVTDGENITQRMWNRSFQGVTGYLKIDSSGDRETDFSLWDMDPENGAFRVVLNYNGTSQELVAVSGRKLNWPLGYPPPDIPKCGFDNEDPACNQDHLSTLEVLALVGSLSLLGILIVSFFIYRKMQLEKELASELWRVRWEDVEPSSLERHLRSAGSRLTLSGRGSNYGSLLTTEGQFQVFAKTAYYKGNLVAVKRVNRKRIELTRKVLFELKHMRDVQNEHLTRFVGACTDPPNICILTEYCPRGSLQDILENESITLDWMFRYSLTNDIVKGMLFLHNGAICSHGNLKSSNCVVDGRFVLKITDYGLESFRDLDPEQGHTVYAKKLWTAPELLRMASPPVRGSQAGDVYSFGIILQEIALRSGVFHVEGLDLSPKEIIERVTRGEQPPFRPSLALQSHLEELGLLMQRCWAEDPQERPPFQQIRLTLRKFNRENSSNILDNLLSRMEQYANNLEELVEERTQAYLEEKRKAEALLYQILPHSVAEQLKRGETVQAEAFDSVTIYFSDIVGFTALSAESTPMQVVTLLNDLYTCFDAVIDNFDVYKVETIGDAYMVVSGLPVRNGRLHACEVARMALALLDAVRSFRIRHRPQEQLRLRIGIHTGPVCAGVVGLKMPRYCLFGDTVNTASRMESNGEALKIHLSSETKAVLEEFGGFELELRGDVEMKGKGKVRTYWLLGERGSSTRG
Summary of the method: as §1

[1] = cGMP production, monkey NPR1 CHO-K1 cells, 30 min at 37° C., 12-point dose-response from 30 μM, read-out: Monkey NPR1 AC50

Chain of monkey NPR1 (A0A7N9DBT9 entry or part of it): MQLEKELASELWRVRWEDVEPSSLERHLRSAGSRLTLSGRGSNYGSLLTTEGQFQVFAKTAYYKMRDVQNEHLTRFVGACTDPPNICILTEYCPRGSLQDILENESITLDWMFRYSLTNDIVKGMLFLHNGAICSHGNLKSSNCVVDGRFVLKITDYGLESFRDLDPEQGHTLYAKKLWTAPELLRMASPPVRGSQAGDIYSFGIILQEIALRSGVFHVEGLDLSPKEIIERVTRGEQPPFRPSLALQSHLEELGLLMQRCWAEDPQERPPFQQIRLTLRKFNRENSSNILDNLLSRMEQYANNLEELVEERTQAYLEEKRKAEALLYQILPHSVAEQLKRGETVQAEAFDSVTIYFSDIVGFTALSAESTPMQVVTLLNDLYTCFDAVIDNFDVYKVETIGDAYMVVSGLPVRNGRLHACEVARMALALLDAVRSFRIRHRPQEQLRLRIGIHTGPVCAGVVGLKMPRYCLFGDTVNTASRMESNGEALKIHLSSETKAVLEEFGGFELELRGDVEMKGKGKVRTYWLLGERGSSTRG

Row | SMILES | AC50 (monkey NPR1) | Monkey NPR1 Amax (% of ANP) (monkey NPR1; monkey NPR1 CHO-K1 cells) | AC50 (human NPR1) | Human NPR1 Amax (% of ANP) (human NPR1) | AC50 (monkey NPR1; [1])
1 | CC[C@@H](N(C)c1nc2c(c(N[C@@H](CN3C4CCCC3CC4)c3cnn(C)c3)n1)C[C@H](c1ccc(F)cc1)CC2)C12CC(C(=O)O)(C1)C2 [Compound 25, 3-((1R)-1-(((6R)-4-(((1R)-2-(8-azabicyclo[3.2.1]octan-8-yl)-1-(1-methyl-1H-pyrazol-4-yl)ethyl)amino)-6-(4-fluorophenyl)-5,6,7,8-tetrahydroquinazolin-2-yl)(methyl)amino)propyl)bicyclo[1.1.1]pentane-1-carboxylic acid] | 108 nM | 106.072 % of ANP | 126 nM | 102.816 % of ANP | 
2 | CC[C@H]([C@H]1CC[C@H](C(=O)O)CC1)N(C)c1nc2c(c(N[C@H](c3cnn(C)c3)C(C)(C)N3CCCCC3)n1)C[C@H](c1ccccc1)CC2 [Compound 173, (1R,4r)-4-((R)-1-(methyl((R)-4-(((R)-2-methyl-1-(1-methyl-1H-pyrazol-4-yl)-2-(piperidin-1-yl)propyl)amino)-6-phenyl-5,6,7,8-tetrahydroquinazolin-2-yl)amino)propyl)cyclohexane-1-carboxylic acid] |  | 102.204 % of ANP | 4200 nM | 102.335 % of ANP | 2580 nM
3 | CC[C@H]([C@H]1CC[C@H](C(=O)O)CC1)N(C)c1nc2c(c(N[C@@H](CN3C4CCCC3CCC4)c3cnn(CC)c3)n1)C[C@@H](c1cccc(F)c1)CC2 [Compound 52, (1R,4r)-4-((R)-1-(((S)-4-(((R)-2-((1S,5S)-9-azabicyclo[3.3.1]nonan-9-yl)-1-(1-ethyl-1H-pyrazol-4-yl)ethyl)amino)-6-(3-fluorophenyl)-5,6,7,8-tetrahydroquinazolin-2-yl)(methyl)amino)propyl)cyclohexane-1-carboxylic acid] | 167 nM | 106.496 % of ANP | 188 nM | 97.880 % of ANP | 
4 | CC[C@H]([C@H]1CC[C@H](C(=O)O)CC1)N(C)c1nc2c(c(N[C@@H](CN3CCC[C@H](C)C3)c3cnn(C)c3)n1)C[C@H](c1ccccc1F)CC2 [Compound 48, (1R,4r)-4-((R)-1-(((R)-6-(2-fluorophenyl)-4-(((R)-1-(1-methyl-1H-pyrazol-4-yl)-2-((S)-3-methylpiperidin-1-yl)ethyl)amino)-5,6,7,8-tetrahydroquinazolin-2-yl)(methyl)amino)propyl)cyclohexane-1-carboxylic acid] |  | 101.062 % of ANP | 183 nM | 106.036 % of ANP | 101 nM
5 | CC[C@@H](Nc1nc2c(c(N[C@@H](CN3CCC(OC)CC3)c3cnn(C)c3)n1)C[C@H](c1ccccc1)CC2)[C@H]1CC[C@H](C(=O)O)CC1 [Compound 151, (1R,4r)-4-((R)-1-(((R)-4-(((R)-2-(4-methoxypiperidin-1-yl)-1-(1-methyl-1H-pyrazol-4-yl)ethyl)amino)-6-phenyl-5,6,7,8-tetrahydroquinazolin-2-yl)amino)propyl)cyclohexane-1-carboxylic acid] |  | 96.950 % of ANP | 1180 nM | 88.350 % of ANP | 1330 nM
6 | CC[C@@H](N(C)c1nc2c(c(N[C@@H](CN3CCC[C@H](C)C3)c3ccnn3C)n1)C[C@H](c1cccc(F)c1)CC2)C12CC(C(=O)O)(C1)C2 [Compound 155, 3-((R)-1-(((R)-6-(3-fluorophenyl)-4-(((S)-1-(1-methyl-1H-pyrazol-5-yl)-2-((S)-3-methylpiperidin-1-yl)ethyl)amino)-5,6,7,8-tetrahydroquinazolin-2-yl)(methyl)amino)propyl)bicyclo[1.1.1]pentane-1-carboxylic acid] |  | 95.840 % of ANP | 1290 nM | 97.313 % of ANP | 648 nM
7 | CC[C@@H](Nc1nc2c(c(N[C@@H](CN3CCCCCC3)c3cnn(CC)c3)n1)C[C@H](c1ccccc1)CC2)[C@H]1CC[C@H](C(=O)O)CC1 [Compound 94, (1R,4r)-4-((R)-1-(((R)-4-(((R)-2-(azepan-1-yl)-1-(1-ethyl-1H-pyrazol-4-yl)ethyl)amino)-6-phenyl-5,6,7,8-tetrahydroquinazolin-2-yl)amino)propyl)cyclohexane-1-carboxylic acid] |  | 105.567 % of ANP | 326 nM | 101.620 % of ANP | 226 nM
8 | CC[C@H]([C@H]1CC[C@H](C(=O)O)CC1)N(C)c1nc2c(c(N[C@@H](CN3CCC[C@H](C)C3)c3cnn(C)c3)n1)CN(c1ccc(F)cc1)CC2 [Compound 110, (1R,4r)-4-((R)-1-((6-(4-fluorophenyl)-4-(((R)-1-(1-methyl-1H-pyrazol-4-yl)-2-((S)-3-methylpiperidin-1-yl)ethyl)amino)-5,6,7,8-tetrahydropyrido[4,3-d]pyrimidin-2-yl)(methyl)amino)propyl)cyclohexane-1-carboxylic acid] |  | 103.438 % of ANP | 419 nM | 99.979 % of ANP | 238 nM
9 | CC[C@H]([C@H]1CC[C@H](C(=O)O)CC1)N(C)c1nc2c(c(N[C@@H](CN3CCC[C@H](O)C3)c3cnn(C)c3)n1)C[C@H](c1ccccc1)CC2 [Compound 129, (1R,4r)-4-((R)-1-(((R)-4-(((R)-2-((S)-3-hydroxypiperidin-1-yl)-1-(1-methyl-1H-pyrazol-4-yl)ethyl)amino)-6-phenyl-5,6,7,8-tetrahydroquinazolin-2-yl)(methyl)amino)propyl)cyclohexane-1-carboxylic acid] |  | 91.227 % of ANP | 646 nM | 93.751 % of ANP | 362 nM
10 | CC[C@H]([C@H]1CC[C@H](CC(=O)O)CC1)N(C)c1nc2c(c(N[C@@H](CN3CCC[C@H](C)C3)c3cnn(C)c3)n1)C[C@H](c1cccc(F)c1)CC2 [Compound 39, 2-((1R,4r)-4-((R)-1-(((R)-6-(3-fluorophenyl)-4-(((R)-1-(1-methyl-1H-pyrazol-4-yl)-2-((S)-3-methylpiperidin-1-yl)ethyl)amino)-5,6,7,8-tetrahydroquinazolin-2-yl)(methyl)amino)propyl)cyclohexyl)acetic acid] |  | 97.588 % of ANP | 162 nM | 100.189 % of ANP | 102 nM
11 | CC[C@H]([C@H]1CC[C@H](C(=O)O)CC1)N(C)c1nc2c(c(N[C@@H](CN3C4CCCC3CC4)c3cnc(C)s3)n1)C[C@H](c1cccc(F)c1)CC2 [Compound 81, (1R,4r)-4-((1R)-1-(((6R)-4-(((1S)-2-(8-azabicyclo[3.2.1]octan-8-yl)-1-(2-methylthiazol-5-yl)ethyl)amino)-6-(3-fluorophenyl)-5,6,7,8-tetrahydroquinazolin-2-yl)(methyl)amino)propyl)cyclohexane-1-carboxylic acid] | 175 nM | 100.863 % of ANP | 271 nM | 101.636 % of ANP | 
12 | CC[C@@H](Nc1nc2c(c(N[C@@H](CN3CC4CCC3C4)c3cnn(C)c3)n1)C[C@H](c1ccccc1)CC2)[C@H]1CC[C@H](C(=O)O)CC1 (stereo partly drawn) [Compound 58, (1R,4r)-4-((1R)-1-(((6R)-4-(((1R)-2-(2-azabicyclo[2.2.1]heptan-2-yl)-1-(1-methyl-1H-pyrazol-4-yl)ethyl)amino)-6-phenyl-5,6,7,8-tetrahydroquinazolin-2-yl)amino)propyl)cyclohexane-1-carboxylic acid] |  | 95.422 % of ANP | 201 nM | 99.715 % of ANP | 149 nM
